These results are taken from article PMC8587515, “Cytotoxic and Anti-Inflammatory Activities of Dihydroisocoumarin and Xanthone Derivatives from Garcinia picrorhiza” (Molecules, 2021).

Where two headings read alike, the source gives them in different places.

The target in test [1] is T1, COX-1 (purified PGHS-1 from ram seminal vesicles) (Ovis aries, UniProt P05979).
T1 construct: Purified PGHS-1 from ram seminal vesicles for COX-1; purchased Cayman Chemical Co., Ann Arbor, MI, USA; host or cells: ram seminal vesicles (tissue-purified)
T1 sequence (P05979 25-600): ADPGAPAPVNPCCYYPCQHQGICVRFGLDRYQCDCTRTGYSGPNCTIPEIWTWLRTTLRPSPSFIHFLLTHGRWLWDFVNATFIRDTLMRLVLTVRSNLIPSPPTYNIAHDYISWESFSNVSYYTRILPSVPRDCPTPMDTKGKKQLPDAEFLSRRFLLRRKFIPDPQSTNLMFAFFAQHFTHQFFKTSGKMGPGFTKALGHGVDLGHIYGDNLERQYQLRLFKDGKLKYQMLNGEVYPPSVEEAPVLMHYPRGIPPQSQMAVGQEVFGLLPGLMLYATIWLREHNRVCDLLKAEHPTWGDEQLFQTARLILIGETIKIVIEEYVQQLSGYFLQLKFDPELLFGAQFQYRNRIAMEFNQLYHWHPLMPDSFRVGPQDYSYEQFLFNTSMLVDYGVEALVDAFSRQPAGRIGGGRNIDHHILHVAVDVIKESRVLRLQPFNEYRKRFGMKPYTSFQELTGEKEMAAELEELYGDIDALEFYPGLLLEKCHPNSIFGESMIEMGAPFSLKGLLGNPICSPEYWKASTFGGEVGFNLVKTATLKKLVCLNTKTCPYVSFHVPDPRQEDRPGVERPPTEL
Nature of the test: COX-1 enzyme inhibition assay (PGE2 ELISA). The format is biochemical. Particulars: mean ± SD (n = 4). As to the method: (§1) The anti-inflammatory effects of the isolated compounds were also screened on COX-1 and COX-2 enzymes inhibition at a final concentration of 20 µM.
(§2) Purified PGHS-1 from ram seminal vesicles for COX-1 and human recombinant PGHS-2 for COX-2 (Cayman Chemical Co., Ann Arbor, MI, USA) were used for the COX inhibition assays. Experiments were performed in a 96-well plate format, as previously described. Briefly, the incubation mixture contained 180 µL of 0.1 M TRIS/HCl-buffer pH 8.0 (Roth, Karlsruhe, Germany), 50 µM Na2EDTA (only for COX-2, Titriplex III, Merck, Darmstadt, Germany), 18 mM L-epinepherine bitartrate (Fluka, Buchs, Switzerland), 5 µM porcine hematin (MP Biomedicals LLC, Solon, OH, USA), and COX-1 or COX-2 enzymes (0.2 U/well). Ten microliters of tested compounds (dissolved in DMSO with a final concentration of 20 µM) was added and the mixture was pre-incubated for 5 min at room temperature. Thereafter, 10 µL of 5 µM arachidonic acid (Ann Arbor, Michigan USA) was added to the mixture and incubated for 20 min at 37 °C. The reaction was subsequently stopped by adding 10 µL of 10% (v/v) formic acid. The concentration of PGE2 generated in the reaction was quantitatively measured by a competitive PGE2 ELISA kit (Enzo Life Sciences Inc., Farmingdale, NY, USA) according to the manufacturer’s protocol and previous procedure. The absorbance at 405 nm was measured using a Hidex Sense Microplate Reader (Hidex, Turku, Finland). […] The assays were performed in duplicates and repeated in two independent experiments.

Test [2] has as its target T2, COX-2 (human recombinant PGHS-2) (Homo sapiens, UniProt P35354).
T2 construct: purchased Cayman Chemical Co., Ann Arbor, MI, USA
T2 sequence (P35354 18-604): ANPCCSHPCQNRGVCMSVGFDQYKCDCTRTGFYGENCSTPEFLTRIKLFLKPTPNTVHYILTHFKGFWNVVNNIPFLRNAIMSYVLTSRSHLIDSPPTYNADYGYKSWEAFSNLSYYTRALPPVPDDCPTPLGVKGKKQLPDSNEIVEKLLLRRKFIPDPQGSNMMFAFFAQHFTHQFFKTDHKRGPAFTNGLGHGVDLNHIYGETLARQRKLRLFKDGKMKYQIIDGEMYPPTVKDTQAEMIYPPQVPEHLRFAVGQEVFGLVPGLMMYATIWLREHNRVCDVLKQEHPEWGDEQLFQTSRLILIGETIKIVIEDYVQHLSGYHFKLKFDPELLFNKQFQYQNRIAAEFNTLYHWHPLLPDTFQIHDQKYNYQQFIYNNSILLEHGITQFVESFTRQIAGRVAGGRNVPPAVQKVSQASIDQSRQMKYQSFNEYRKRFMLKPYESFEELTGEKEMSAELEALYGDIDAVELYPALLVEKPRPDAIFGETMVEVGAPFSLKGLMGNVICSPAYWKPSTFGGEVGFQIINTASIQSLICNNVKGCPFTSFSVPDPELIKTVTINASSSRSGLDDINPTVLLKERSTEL
Nature of the test: COX-2 enzyme inhibition assay (PGE2 ELISA). The format is biochemical. As to conditions: mean ± SD (n = 4). As to the method:
as §1, §2
On the technique in general: In an ELISA, binding on a coated surface is turned into a signal by an enzyme label.

Test [3] concerns KB (human epidermoid carcinoma). Set-up: method as in PMID 30153471, PMID 33999337. As to conditions: MTT; results based on previous work; read-out: IC50 ± SEM, KB; cited from earlier work.
Test [4] relates to HeLa S3 (human cervical carcinoma). Also on record: method as in PMID 30153471, PMID 33999337. Particulars: MTT; results based on previous work; read-out: IC50 ± SEM, HeLa S3; cited from earlier work.
Test [5] concerns MCF-7 (human breast adenocarcinoma). Set-up: method as in PMID 30153471, PMID 33999337. Particulars: MTT; results based on previous work; read-out: IC50 ± SEM, MCF-7; cited from earlier work.
Test [6] concerns Hep G2 (human hepatocellular carcinoma). Set-up: method as in PMID 30153471, PMID 33999337. As to conditions: MTT; results based on previous work; read-out: IC50 ± SEM, Hep G2; cited from earlier work.
Test [7] has as its system HT-29 (human colon adenocarcinoma). Also on record: method as in PMID 30153471, PMID 33999337. As to conditions: MTT; results based on previous work; read-out: IC50 ± SEM, HT-29; cited from earlier work.
Test [8] deals with four cancer cells (KB, HeLa S3, MCF-7, and Hep G2). Particulars: HeLa S3, MCF-7, Hep G2, earlier studies, read-out: IC50 values against four cancer cells; cited from earlier work.
In test [9] the test system is KB (human epidermoid carcinoma). Nature of the test: MTT cytotoxic activity assay, KB. The format is cell-based. As to conditions: 72 h, mean ± SEM of three replicates. The protocol: (§3) The cytotoxic activity of the isolated compounds was evaluated using the MTT viability assay with doxorubicin as the positive control and the results are presented in Table 2.
(§4) The MTT colorimetric method was performed to evaluate cytotoxic activity of the isolated compounds against human epidermoid carcinoma (KB; ATCC CCL17), human cervical carcinoma (HeLa S3; ATCC CCL2-2), human colon adenocarcinoma (HT-29; ATCC HTB-38), human breast adenocarcinoma (MCF-7; ATCC HTB-22), and human hepatocellular carcinoma (Hep G2; ATCC HB-8065) cell lines according to the previous method. The cancer cells were cultured in MEM containing 10% fetal bovine serum in the presence of 100 U/mL penicillin and 100 μg/mL streptomycin sulphate (Gibco, Rockville, MD, USA), seeded in a 96-well plate (3000 cells/well), and pre-incubated at 37 °C for 24 h in a 5% CO2 humidified atmosphere. The tested compounds with serial concentrations (0.3–100 μM) were added and incubated for a further 72 h in the same condition. At the end of treatment, 20 µL of MTT solution (5 mg/mL in PBS, Sigma, St. Louis, MI, USA) was added to each well and further incubated for 3 h. After centrifugation at 1400 rpm for 5 min at 4 °C, the supernatant was decanted and DMSO (100 µL/well) was added to allow formazan product solubilization, which was subsequently measured by a microplate reader (Tecan Trading AG, Switzerland) at wavelength 550 nm. Control cells were treated with 0.1% DMSO. Doxorubicin (tested concentrations: 0.01–3.0 μM, Sigma) was used as the positive control. The results are expressed as the mean values of three replicates for three independent experiments. IC50 values were determined by graphical analysis using SigmaPlot 10 (Systat Software Inc., San Jose, CA, USA), obtained by plotting the cell viability percentage versus sample concentration.
A general note: Formazan colour is commonly taken as a measure of viable cells.

In test [10] the test system is HeLa S3 (human cervical carcinoma). Nature of the test: MTT cytotoxic activity assay, HeLa S3. The format is cell-based. As to conditions: 72 h, mean ± SEM of three replicates. The protocol:
as §3, §4

The test system of test [11] is MCF-7 (human breast adenocarcinoma). Nature of the test: MTT cytotoxic activity assay, MCF-7. The format is cell-based. Particulars: MCF7, 72 h, mean ± SEM of three replicates. The protocol: as §3
(§5) The MTT colorimetric method was performed to evaluate cytotoxic activity of the isolated compounds against human epidermoid carcinoma (KB; ATCC CCL17), human cervical carcinoma (HeLa S3; ATCC CCL2-2), human colon adenocarcinoma (HT-29; ATCC HTB-38), human breast adenocarcinoma (MCF-7; ATCC HTB-22), and human hepatocellular carcinoma (Hep G2; ATCC HB-8065) cell lines according to the previous method. […] After centrifugation at 1400 rpm for 5 min at 4 °C, the supernatant was decanted and DMSO (100 µL/well) was added to allow formazan product solubilization, which was subsequently measured by a microplate reader (Tecan Trading AG, Switzerland) at wavelength 550 nm. […] The results are expressed as the mean values of three replicates for three independent experiments. IC50 values were determined by graphical analysis using SigmaPlot 10 (Systat Software Inc., San Jose, CA, USA), obtained by plotting the cell viability percentage versus sample concentration.

Test [12] concerns Hep G2 (human hepatocellular carcinoma). Nature of the test: MTT cytotoxic activity assay, Hep G2. The format is cell-based. Particulars: HepG2, 72 h, mean ± SEM of three replicates. As to the method:
as §3, §5

In test [13] the test system is HT-29 (human colon adenocarcinoma). Nature of the test: MTT cytotoxic activity assay, HT-29. The format is cell-based. As to conditions: 72 h, mean ± SEM of three replicates. The protocol:
as §3, §5

In test [14] the target is T1, COX-1 (purified PGHS-1 from ram seminal vesicles). Also on record: method as in PMID 32627543. Particulars: at 20 µM; cited from earlier work.

What is called inhibition is the relative decrease from the control value, in per cent. The IC50 is the concentration that gives 50% inhibition. Consider `CC(C)=CCc1c2c(c3oc4c(O)c(O)ccc4c(=O)c3c1O)C(C)(C)[C@H](C)O2` [Compound 8, formoxanthone C], for which the inhibition at 20 µM in test [1] is 24 ± 15%; in [2], < 10%. Besides, the half-maximal inhibitory concentration (IC50) in [3] is 200 ± 100 nM; in test [4] it was 300 ± 100 nM; in test [5], 4900 ± 400 nM; in test [6], 3800 ± 500 nM; in [7], 21900 ± 1200 nM; in test [8], < 10000 nM.
Turning to `COc1cccc2c1C(=O)c1c(O)c3c(c(O)c1C2=O)C[C@@](O)(C(=O)CO)C[C@@H]3O[C@H]1C[C@H](N)[C@H](O)[C@H](C)O1` [Doxorubicin, reference compound], the 50% inhibitory concentration (IC50) was 20 ± 10 nM in test [9]; 150 ± 20 nM in test [10]; 1290 ± 20 nM in test [11]; 1000 ± 170 nM in [12]; 590 ± 30 nM in [13].
For `C=C(C)[C@H]1C[C@@H](C[C@@]23C[C@@H](/C=C/C(C)C)C(C)(C)[C@@](CC=C(C)C)(C2=O)c2oc4cc(O)c(O)cc4c(=O)c2C3=O)C1(C)C` [picrorhizone H], the “COX-1 inhibitory activity, % inhibition” value in [14] is reported as 35.2 ± 9.6%.
